Results from EP1331219A1.
Where a name gives a salt, the structure may show the parent alone.

Assays:
Format in all cases: binding, mouse
[1] = system: murine monoclonal antibody 6H5D1C4 (DASM243-6H5D1C4); test: Competition ELISA on BSA-Met1 coated plates: cross reactivity with methamphetamine analogs; conditions: methamphetamine recognized more than ecstasy
[2] = target: murine monoclonal antibody DASM243-6H5D1C4 (IgG2b), raised against TT-Met1; test: RIA: affinity determination by competition between labeled and unlabeled metabolite; conditions: purified mAb, calculated by the method of Müller from IC50
[3] = target: murine monoclonal antibody DASM243-A10A6A2 (IgG1), raised against TT-Met1; test: as above; conditions: purified mAb, calculated by the method of Müller from IC50

CN[C@@H](C)Cc1ccccc1 [Methamphetamine, methamphetamine]
recognition of methamphetamine relative to ecstasy [1]: 10 times

CNC(C)Cc1ccccc1 (stereo not drawn) [methamphetamine oxalate]
Ka [2]: 2.58e+08 M⁻¹ | Ka [3]: 5.58e+06 M⁻¹
